Results from ChEMBL document CHEMBL6109114, “Design, synthesis, and biological evaluation of 4-(2-fluorophenoxy)pyridine derivatives as novel FLT3-ITD inhibitors” (Eur J Med Chem, 2025).

Columns and labels:
[1] = tested on: BaF3; assay: Antiproliferative activity against wild type mouse BaF3 cells assessed as inhibition of cell growth measured after 3 days by celltiter-glo luminescent cell viability assay; assay type: functional, cell-based; details: BaF3, 72 h
[2] = tested on: BaF3; assay: Antiproliferative activity against mouse BaF3 cells harbouring FLT3-ITD assessed as inhibition of cell growth measured after 3 days by celltiter-glo luminescent cell viability assay; assay type: functional, cell-based; details: BaF3, 72 h
[3] = tested on: BaF3; assay: Antiproliferative activity against mouse BaF3 cells harbouring VEGFR2 assessed as inhibition of cell growth measured after 3 days by celltiter-glo luminescent cell viability assay; assay type: functional, cell-based; details: BaF3, 72 h
[4] = tested on: MOLM-13; assay: Antitumor activity against human MOLM-13 xenografted in male nude mouse assessed as tumor growth inhibition at 20 mg/kg, po administered once daily for 14 days by vernier caliper method relative to control; assay type: functional; details: MOLM-13, 336 h, time 14 day, read-out: TGI
[5] = tested on: MOLM-13; assay: Induction of cell cycle arrest in human MOLM-13 cells assessed as accumulation of cells at G2 phase at 0.1 uM incubated for 48 hrs (reference value: […]); assay type: functional
[6] = tested on: MOLM-13; assay: Induction of apoptosis in human MOLM-13 cells assessed as viable cells at 0.1 uM incubated for 48 hrs by Annexin V-FITC/PI staining based flow cytometry analysis (reference value: 91.9%); assay type: functional; details: read-out: Activity
[7] = tested on: MOLM-13; assay: Induction of apoptosis in human MOLM-13 cells assessed as necrotic cells at 0.1 uM incubated for 48 hrs by Annexin V-FITC/PI staining based flow cytometry analysis (reference value: 0.077%); assay type: functional
[8] = tested on: MOLM-13; assay: Induction of apoptosis in human MOLM-13 cells assessed as late apoptotic cells at 0.1 uM incubated for 48 hrs by Annexin V-FITC/PI staining based flow cytometry analysis (reference value: 3.10%); assay type: functional
[9] = tested on: MOLM-13; assay: Induction of apoptosis in human MOLM-13 cells assessed as early apoptotic cells at 0.1 uM incubated for 48 hrs by Annexin V-FITC/PI staining based flow cytometry analysis (reference value: 4.93%); assay type: functional
[10] = tested on: MOLM-13; assay: Induction of cell cycle arrest in human MOLM-13 cells assessed as accumulation of cells at S phase at 0.1 uM incubated for 48 hrs (reference value: 41.6%); assay type: functional
[11] = tested on: MOLM-13; assay: Induction of cell cycle arrest in human MOLM-13 cells assessed as accumulation of cells at G1 phase at 0.1 uM incubated for 48 hrs (reference value: 40.3%); assay type: functional

SMILES | IC50 [1] [µM] | IC50 [2] [µM] | IC50 [3] [µM] | other results
Cc1cc(=O)n(-c2ccc(S(C)(=O)=O)cc2)nc1C(=O)Nc1ccc(Oc2ccnc(NC(=O)N3CC(O)C3)c2)c(F)c1 | > 10 | > 10 | – | –
Cc1cc(=O)n(-c2ccc(OC(F)(F)F)cc2)nc1C(=O)Nc1ccc(Oc2ccnc(NC(=O)N3CC(O)C3)c2)c(F)c1 | > 10 | 3.91 | – | –
CCN(CC)CCNC(=O)c1c(C)[nH]c(/C=C2\C(=O)Nc3ccc(F)cc32)c1C [SUNITINIB] | – | – | – | inhibition in vivo at 20 mg/kg [4]: 73.2%
Cc1cc(=O)n(-c2cc(Cl)ccc2F)nc1C(=O)Nc1ccc(Oc2ccnc(NC(=O)N3CCC(C(C)(C)O)CC3)c2)c(F)c1 | > 10 | 1.67 | 2.44 | –
COc1cc2nccc(Oc3ccc(NC(=O)N/N=C/c4cn(-c5ccccc5OC)nn4)cc3)c2cc1OC | – | 5.82 | 8.07 | –
COC1CCN(C(=O)Nc2cc(Oc3ccc(NC(=O)c4nn(-c5cc(Cl)ccc5F)c(=O)cc4C)cc3F)ccn2)C1 (stereo not given) | > 10 | 0.52 | 1.12 | –
CCc1nc(C(N)=O)c(Nc2ccc(N3CCC(N4CCN(C)CC4)CC3)c(OC)c2)nc1NC1CCOCC1 [GILTERITINIB] | – | 0.13 | – | –
Cc1cc(=O)n(-c2cc(Cl)ccc2F)nc1C(=O)Nc1ccc(Oc2ccnc(NC(=O)NC3CCOCC3)c2)c(F)c1 | > 10 | 6.3 | 2.05 | –
Cc1cc(=O)n(-c2cc(Cl)ccc2F)nc1C(=O)Nc1ccc(Oc2ccnc(NC(=O)NC3CC3)c2)c(F)c1 | > 10 | 7.81 | 5.02 | –
Cc1cc(=O)n(-c2cc(Cl)ccc2F)nc1C(=O)Nc1ccc(Oc2ccnc(NC(=O)N3CCC(C)(O)C3)c2)c(F)c1 (stereo not given) | 7.8 | 0.61 | 1.01 | –
Cc1cc(=O)n(-c2cc(Cl)ccc2F)nc1C(=O)Nc1ccc(Oc2ccnc(NC(=O)N3CCC(N4CCN(C)CC4)CC3)c2)c(F)c1 | 8.5 | 0.8 | 1.19 | –
Cc1cc(=O)n(-c2ccc(C#N)cc2)nc1C(=O)Nc1ccc(Oc2ccnc(NC(=O)N3CC(O)C3)c2)c(F)c1 | > 10 | > 10 | – | –
Cc1cc(=O)n(-c2cc(Cl)ccc2F)nc1C(=O)Nc1ccc(Oc2ccnc(NC(=O)N3CCC(C)CC3)c2)c(F)c1 | > 10 | 4.16 | 5.51 | –
CNC(=O)c1cc(Oc2ccc(NC(=O)Nc3ccc(Cl)c(C(F)(F)F)c3)cc2)ccn1 [SORAFENIB] | – | 0.1 | 0.018 | Activity [5]: 0%; viability at 0.1 µM [6]: 25.7%; Activity [7]: 0.66%; Activity [8]: 47%; Activity [9]: 26.7%; Activity [10]: 35.4%; Activity [11]: 62.9%
COc1ccc(-n2nc(C(=O)Nc3ccc(Oc4ccnc(NC(=O)N5CC(O)C5)c4)c(F)c3)c(C)cc2=O)cc1 | > 10 | 1.13 | 4.21 | –

Now from value to molecule, other results behind:

IC50 [1] [µM] | IC50 [2] [µM] | IC50 [3] [µM] | SMILES | other results
> 10 | 0.99 | 1.72 | Cc1cc(=O)n(-c2ccc(C(F)(F)F)cc2)nc1C(=O)Nc1ccc(Oc2ccnc(NC(=O)N3CC(O)C3)c2)c(F)c1 | –
> 10 | 1.52 | 2.01 | Cc1ccc(-n2nc(C(=O)Nc3ccc(Oc4ccnc(NC(=O)N5CC(O)C5)c4)c(F)c3)c(C)cc2=O)cc1 | –
> 10 | 0.63 | 0.7 | Cc1cc(-n2nc(C(=O)Nc3ccc(Oc4ccnc(NC(=O)N5CC(O)C5)c4)c(F)c3)c(C)cc2=O)ccc1F | –
> 10 | 1.87 | 2.96 | Cc1cc(=O)n(-c2ccccc2Cl)nc1C(=O)Nc1ccc(Oc2ccnc(NC(=O)N3CC(O)C3)c2)c(F)c1 | –
> 10 | 0.49 | 0.77 | Cc1cc(=O)n(-c2ccc(F)cc2)nc1C(=O)Nc1ccc(Oc2ccnc(NC(=O)N3CC(O)C3)c2)c(F)c1 | –
> 10 | 0.61 | 0.72 | Cc1cc(=O)n(-c2ccc(Cl)cc2)nc1C(=O)Nc1ccc(Oc2ccnc(NC(=O)N3CC(O)C3)c2)c(F)c1 | –
> 10 | 0.4 | 0.54 | Cc1cc(=O)n(-c2ccc(F)c(Cl)c2)nc1C(=O)Nc1ccc(Oc2ccnc(NC(=O)N3CC(O)C3)c2)c(F)c1 | –
> 10 | 0.55 | 1.41 | Cc1cc(=O)n(-c2ccc(F)cc2F)nc1C(=O)Nc1ccc(Oc2ccnc(NC(=O)N3CC(O)C3)c2)c(F)c1 | –
> 10 | 1.38 | 3.07 | Cc1cc(=O)n(-c2ccc(Br)cc2)nc1C(=O)Nc1ccc(Oc2ccnc(NC(=O)N3CC(O)C3)c2)c(F)c1 | –
9.2 | 0.35 | 0.44 | Cc1cc(=O)n(-c2cccc(Cl)c2)nc1C(=O)Nc1ccc(Oc2ccnc(NC(=O)N3CC(O)C3)c2)c(F)c1 | –
> 10 | 0.85 | 1.48 | COc1cc(F)ccc1-n1nc(C(=O)Nc2ccc(Oc3ccnc(NC(=O)N4CC(O)C4)c3)c(F)c2)c(C)cc1=O | –
> 10 | 0.7 | 1.16 | Cc1cc(=O)n(-c2ccccc2)nc1C(=O)Nc1ccc(Oc2ccnc(NC(=O)N3CC(O)C3)c2)c(F)c1 | –
> 10 | 0.67 | 0.85 | Cc1cc(=O)n(-c2ccccc2F)nc1C(=O)Nc1ccc(Oc2ccnc(NC(=O)N3CC(O)C3)c2)c(F)c1 | –
> 10 | 0.6 | 1.29 | Cc1cc(=O)n(-c2cc(Cl)ccc2F)nc1C(=O)Nc1ccc(Oc2ccnc(NC(=O)N3CCC(O)C3)c2)c(F)c1 (stereo not given) | –
> 10 | 0.73 | 1.04 | Cc1cc(=O)n(-c2cc(F)cc(Cl)c2)nc1C(=O)Nc1ccc(Oc2ccnc(NC(=O)N3CC(O)C3)c2)c(F)c1 | –
> 10 | 0.56 | 0.79 | Cc1cc(=O)n(-c2ccc(Cl)c(F)c2)nc1C(=O)Nc1ccc(Oc2ccnc(NC(=O)N3CC(O)C3)c2)c(F)c1 | –
> 10 | 0.47 | 0.58 | Cc1cc(=O)n(-c2ccc(F)c(F)c2)nc1C(=O)Nc1ccc(Oc2ccnc(NC(=O)N3CC(O)C3)c2)c(F)c1 | –
> 10 | 0.49 | 1.45 | Cc1cc(=O)n(-c2cc(Cl)c(F)c(Cl)c2)nc1C(=O)Nc1ccc(Oc2ccnc(NC(=O)N3CC(O)C3)c2)c(F)c1 | –
> 10 | 4.3 | – | Cc1cc(=O)n(-c2ccc(I)cc2)nc1C(=O)Nc1ccc(Oc2ccnc(NC(=O)N3CC(O)C3)c2)c(F)c1 | –
> 10 | 0.77 | 1.25 | Cc1cc(F)ccc1-n1nc(C(=O)Nc2ccc(Oc3ccnc(NC(=O)N4CC(O)C4)c3)c(F)c2)c(C)cc1=O | –
> 10 | 1.88 | 5.32 | Cc1cc(=O)n(-c2cc(F)ccc2Cl)nc1C(=O)Nc1ccc(Oc2ccnc(NC(=O)N3CC(O)C3)c2)c(F)c1 | –
